In PubChem BioAssay (NCI):
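Dose response: 5 concentrations. Exposure: 48 h. Format: 96-well plates. Endpoint: linear interpolation; highest concentration if not reached. GI50 marks 50% less growth. TGI: concentration producing complete growth inhibition.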

How the values were obtained:
Experiment in all cases: growth of human tumour cells (NCI), 48 h
[1] = test system: EKVX NSCLC
[2] = test system: A549 NSCLC
[3] = test system: HCT-116 colon
[4] = test system: NCI-H522 lung
[5] = test system: A498 renal
[6] = test system: U251 CNS
[7] = test system: ACHN renal
[8] = test system: 786-0 renal
[9] = test system: MOLT-4 leukemia
[10] = test system: SW-620 colon
[11] = test system: HS 578T breast
[12] = test system: HCT-15 colon
[13] = test system: PC-3 prostate
[14] = test system: SF-295 CNS
[15] = test system: BT-549 breast
[16] = test system: OVCAR-4 ovarian
[17] = test system: CAKI-1 renal
[18] = test system: IGROV1 ovarian
[19] = test system: SK-MEL-2 melanoma
[20] = test system: HOP-92 NSCLC
[21] = test system: MDA-MB-468 breast
[22] = test system: NCI/ADR-RES ovarian
[23] = test system: NCI-H460 lung
[24] = test system: K-562 leukemia
[25] = test system: TK-10 renal
[26] = test system: LOX IMVI melanoma
[27] = test system: CCRF-CEM leukemia
[28] = test system: SNB-19 CNS
[29] = test system: OVCAR-8 ovarian
[30] = test system: RPMI-8226 leukemia
[31] = test system: SN12C renal
[32] = test system: SF-539 CNS
[33] = test system: UO-31 renal
[34] = test system: NCI-H226 lung
[35] = test system: HCC-2998 colon
[36] = test system: MCF7 breast
[37] = test system: SK-MEL-28 melanoma
[38] = test system: MDA-MB-231 breast
[39] = test system: HOP-62 NSCLC
[40] = test system: SR leukemia
[41] = test system: SNB-75 CNS
[42] = test system: SK-MEL-5 melanoma
[43] = test system: MALME-3M melanoma
[44] = test system: OVCAR-5 ovarian
[45] = test system: NCI-H23 lung
[46] = test system: HL-60(TB) leukemia
[47] = test system: UACC-62 melanoma
[48] = test system: SF-268 CNS
[49] = test system: HT29 colon
[50] = test system: OVCAR-3 ovarian
[51] = test system: SK-OV-3 ovarian
[52] = test system: DU-145 prostate
[53] = test system: COLO 205 colon
[54] = test system: MDA-MB-435
[55] = test system: M14 melanoma
[56] = test system: KM12 colon
[57] = test system: RXF 393 renal

**Q.** What does the source list for `CNc1nc2ccccc2n2c(-c3ccc(O)c(O)c3)cnc12`?
**A.** GI50 [1]: < 20.7 nM; TGI [1]: 32700 nM; GI50 [2]: < 10 nM; TGI [2]: > 35000 nM; GI50 [3]: < 10 nM; TGI [3]: 963 nM; GI50 [4]: < 10 nM; TGI [4]: < 10 nM; GI50 [5]: 20700 nM; TGI [5]: 61600 nM; GI50 [6]: < 10 nM; TGI [6]: > 39200 nM; GI50 [7]: < 10 nM; TGI [7]: 20900 nM; GI50 [8]: 113 nM; TGI [8]: 21500 nM; GI50 [9]: < 10 nM; TGI [9]: 18900 nM; GI50 [10]: < 10 nM; TGI [10]: > 69900 nM; GI50 [11]: < 10 nM; TGI [11]: 8130 nM; GI50 [12]: < 10 nM; TGI [12]: 31300 nM; GI50 [13]: < 10 nM; TGI [13]: 25900 nM; GI50 [14]: < 11 nM; TGI [14]: 1740 nM; GI50 [15]: < 10 nM; TGI [15]: 1160 nM; GI50 [16]: 475 nM; TGI [16]: > 78800 nM; GI50 [17]: < 10 nM; TGI [17]: 22200 nM; GI50 [18]: < 10 nM; TGI [18]: 18900 nM; GI50 [19]: < 10 nM; TGI [19]: 5750 nM; GI50 [20]: 170 nM; TGI [20]: 10500 nM; GI50 [21]: < 10 nM; TGI [21]: < 10 nM; GI50 [22]: < 10 nM; TGI [22]: < 10 nM; GI50 [23]: < 10 nM; TGI [23]: 10500 nM; GI50 [24]: < 10 nM; TGI [24]: > 100000 nM; GI50 [25]: 7980 nM; TGI [25]: 44300 nM; GI50 [26]: < 10 nM; TGI [26]: 13700 nM; GI50 [27]: < 10 nM; TGI [27]: 1770 nM; GI50 [28]: < 10 nM; TGI [28]: 31100 nM; GI50 [29]: < 10 nM; TGI [29]: 507 nM; GI50 [30]: < 10 nM; TGI [30]: 6600 nM; GI50 [31]: < 10 nM; TGI [31]: 10700 nM; GI50 [32]: < 10 nM; TGI [32]: < 10 nM; GI50 [33]: < 10 nM; TGI [33]: 15900 nM; GI50 [34]: 1410 nM; TGI [34]: 37900 nM; GI50 [35]: < 10 nM; TGI [35]: 15000 nM; GI50 [36]: < 10 nM; TGI [36]: > 38500 nM; GI50 [37]: < 10 nM; TGI [37]: 23300 nM; GI50 [38]: < 10 nM; TGI [38]: < 14.9 nM; GI50 [39]: < 10 nM; TGI [39]: 26100 nM; GI50 [40]: < 10 nM; TGI [40]: > 34000 nM; GI50 [41]: < 10 nM; TGI [41]: 14800 nM; GI50 [42]: < 10 nM; TGI [42]: 14.2 nM; GI50 [43]: < 10 nM; TGI [43]: 19300 nM; GI50 [44]: < 10 nM; TGI [44]: 23300 nM; GI50 [45]: < 10 nM; TGI [45]: 9560 nM; GI50 [46]: < 10 nM; TGI [46]: < 10 nM; GI50 [47]: < 10 nM; TGI [47]: 5090 nM; GI50 [48]: < 22.6 nM; TGI [48]: 54700 nM; GI50 [49]: 36.7 nM; TGI [49]: 1640 nM; GI50 [50]: < 10 nM; TGI [50]: 4620 nM; GI50 [51]: 191 nM; TGI [51]: 13600 nM; GI50 [52]: < 10 nM; TGI [52]: > 33900 nM; GI50 [53]: 128 nM; TGI [53]: 1560 nM; GI50 [54]: < 10 nM; TGI [54]: 1290 nM; GI50 [55]: < 10 nM; TGI [55]: 2830 nM; GI50 [56]: < 10 nM; TGI [56]: 26300 nM; GI50 [57]: < 10 nM; TGI [57]: 14800 nM
